Tested on: HMSCs
Assay: Calcium deposition (osteogenic differentiation) with purmorphamine
Format: cell-based, human
Details: 2 μM purmorphamine added directly into differentiation media, hMSCs on polystyrene culture plate (PS)

c1ccc2c(Oc3nc(Nc4ccc(N5CCOCC5)cc4)c4ncn(C5CCCCC5)c4n3)cccc2c1 [purmorphamine]
calcium deposition: significant increase in calcium deposition
